Laboratory results: US7125872B2, “β-sheet mimetics and use thereof as inhibitors of biologically active peptides or proteins” (Myriad Genetics, Inc., priority 1995, dated 2006)

How the values were obtained:
bovine trypsin = target: T1, bovine trypsin (Bos taurus, UniProt P00760); assay: trypsin inhibition assay, IC50 (Example 4); type: biochemical
T1 construct: purchased Sigma
T1 sequence (P00760 24-246): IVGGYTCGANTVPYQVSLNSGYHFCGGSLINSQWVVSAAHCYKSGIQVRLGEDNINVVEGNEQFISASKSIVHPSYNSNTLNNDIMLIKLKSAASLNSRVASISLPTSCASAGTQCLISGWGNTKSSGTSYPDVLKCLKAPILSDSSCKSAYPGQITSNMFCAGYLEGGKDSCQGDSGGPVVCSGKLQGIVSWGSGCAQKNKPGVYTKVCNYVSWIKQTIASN
Protocol: All inhibition assays of this experiment were performed at room temperature in 96 well microplates using a Bio-Rad microplate reader (Model 3550). […] This solution (2.05 mM) served as the stock solution for all the inhibition assays. The hydrolysis of chromogenic substrates was monitored at 405 nm. The reaction progress curves were recorded by reading the plates typically 90 times with 30 seconds to 2 minute intervals. The initial rate were determined by unweighted nonlinear least-squares fitting to a first order reaction in GraFit. The determined initial velocities were then nonlinear least-square fitted against the concentrations of structure.
In the trypsin assay, pH 7.8 Tris (0.10 M Tris and 0.02 M CaCl2) was utilized as the buffer. BAPNA (from Sigma) was used at 1 mg/ml in 1% DMSO (v/v) deionized water solution as substrate. The same dilutions of structure (13b) were made as for Factor VII assay.

[1] = pharmacodynamic and pharmacokinetic study in rats; type: in vivo, male Sprague Dawley rats
Protocol: Specifically, a pharmacodynamic and pharmacokinetic study of structure (20b) was conducted in male Sprague Dawley rats. […] Groups of rats (n=3 or 4) were sacrificed and exsanguinated at 0.25, 0.5, 1, 2, 4 and 8 hours following dosing. Efficacy parameters, aPTT and TT, were measured for each plasma sample.

factor X = factor X (Bos taurus, UniProt P00743); assay: Factor X inhibition assay, Ki, bovine plasma enzyme; type: biochemical; conditions: bovine plasma (footnote e)
Protocol: All inhibition assays were performed at room temperature in 96 well microplates using Bio-Rad microplate reader (Model 3550). […] The hydrolysis of chromogenic subsstrates was monitored at 405 nm. The reaction progress curves were recorded by reading the plates, typically 60 times with 30 second to 2 minute intervals. Initial rates were determined by unweighted nonlinear least-squares fitting to a first order reaction in GraFit (Erithacus Software Limited, London, England).
Factor X: Buffer and substrate were the same as used for thrombin assay. A 1:100 dilution was made in the pH8.0 tris buffer to serve as the first point. Seven more dilutions from the first were made for the assay.

factor VII = factor VII (Homo sapiens, UniProt P08709); assay: Factor VII inhibition assay, Ki (Example 5); type: biochemical
Protocol: (§1) The reaction progress curves were recorded by reading the plates, typically 60 times with 30 second to 2 minute intervals. Initial rates were determined by unweighted nonlinear least-squares fitting to a first order reaction in GraFit (Erithacus Software Limited, London, England).
From this concentration point seven more sequential dilutions were made for the assay.

[2] = target: T2, Thrombin thrombomodulin complex (Bos taurus, UniProt P00735); assay: thrombin-thrombomodulin complex inhibition assay, Ki; type: biochemical; conditions: read-out: Ki T.T.C. (Thrombin thrombomodulin complex)
T2 construct: thrombin was preincubated with 4 n thrombomodulin for 20 minutes at room temperature
Protocol: Seven sequential dilutions were made from the first point for the assay.
The assay for thrombin-thromomodulin complex was conducted as for thrombin except that prior to the addition of inhibitor and substrate, thrombin was preincubated with 4 n thrombomodulin for 20 minutes at room temperature.

tryptase = target: T3, tryptase; assay: tryptase inhibition assay, Ki; type: biochemical, human
T3 construct: rows headed: Ki tryptase; Ki Tryptase; tryptase; human lung; 2 (nM assay conc.)
Protocol: as §1
Tryptase: 0.1 M tris, 0.2 M NaCl, 0.1 mg/ml heparin, pH=8.0 was utilized as buffer. […] From this point seven more dilutions were made for the assay.

Chain of factor X (P00743 234-492 limits assumed): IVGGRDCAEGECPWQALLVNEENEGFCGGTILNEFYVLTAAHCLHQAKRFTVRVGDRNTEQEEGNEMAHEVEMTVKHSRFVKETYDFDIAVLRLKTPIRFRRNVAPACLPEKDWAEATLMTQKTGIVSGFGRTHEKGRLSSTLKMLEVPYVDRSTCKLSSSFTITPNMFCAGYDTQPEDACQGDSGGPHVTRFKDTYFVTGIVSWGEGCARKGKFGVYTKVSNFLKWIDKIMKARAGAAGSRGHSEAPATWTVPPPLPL
Chain of factor X (P00743 41-180 limits assumed): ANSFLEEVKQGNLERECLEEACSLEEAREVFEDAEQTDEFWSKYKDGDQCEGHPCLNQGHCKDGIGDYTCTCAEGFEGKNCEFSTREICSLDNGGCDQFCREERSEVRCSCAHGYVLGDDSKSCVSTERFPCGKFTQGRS
Chain of factor VII (P08709 213-466 limits assumed): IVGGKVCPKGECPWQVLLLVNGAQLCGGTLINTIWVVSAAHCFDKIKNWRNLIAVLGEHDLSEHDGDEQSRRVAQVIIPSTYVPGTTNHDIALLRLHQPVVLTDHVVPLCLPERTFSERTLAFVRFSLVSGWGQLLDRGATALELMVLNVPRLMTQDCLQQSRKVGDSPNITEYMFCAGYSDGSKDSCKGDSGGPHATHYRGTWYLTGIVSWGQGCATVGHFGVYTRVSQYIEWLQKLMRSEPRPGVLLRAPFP
Chain of factor VII (P08709 61-212 limits assumed): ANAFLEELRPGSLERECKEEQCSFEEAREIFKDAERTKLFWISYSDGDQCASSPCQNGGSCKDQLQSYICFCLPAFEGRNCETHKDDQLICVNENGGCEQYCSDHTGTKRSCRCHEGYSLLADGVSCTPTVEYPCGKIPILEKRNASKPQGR
Chain of factor VII (P13726 33-295 partner): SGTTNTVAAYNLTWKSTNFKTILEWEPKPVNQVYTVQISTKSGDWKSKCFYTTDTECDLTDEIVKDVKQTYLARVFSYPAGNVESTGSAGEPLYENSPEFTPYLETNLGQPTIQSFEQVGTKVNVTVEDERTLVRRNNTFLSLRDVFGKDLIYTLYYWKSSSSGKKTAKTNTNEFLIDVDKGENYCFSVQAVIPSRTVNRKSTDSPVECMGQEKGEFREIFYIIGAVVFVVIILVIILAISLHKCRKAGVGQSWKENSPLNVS

**Q.** For `N=C(N)NCCC[C@H](NC(=O)[C@@H]1CCN2CC[C@@](N)(Cc3ccccc3)C(=O)N12)C(=O)CCl` [Structure (13b)], which IC50 (bovine trypsin) is on record?
**A.** Its IC50 is 16 ± 8 nM.

**Q.** Which results are given for `N=C(N)NCCC[C@H](NC(=O)[C@@H]1CCN2CC[C@@](N)(Cc3ccccc3)C(=O)N12)C(=O)c1nc2ccccc2s1` [Structure (20b)]?
**A.** efficacy parameters aPTT and TT ([1]; rat plasma, 4 mg/kg IV and 10 mg/kg PO, FIGS. 4A and 4B): in viva efficacy; bioavailability of orally administered compound ([1]; rat, 10 mg/kg PO vs 4 mg/kg IV): approximately 27%

**Q.** Which Ki (factor X) does the source give for `N=C(N)NCCC[C@H](NC(=O)[C@@H]1CC[C@@H]2CC[C@](N)(Cc3ccccc3)C(=O)N21)C(=O)c1nc2ccccc2s1` [Structure (29a)] here?
**A.** Its Ki is 4650 nM.

**Q.** And the Ki (factor VII)?
**A.** The Ki was 1770 nM.

**Q.** For `N=C(N)NCCC[C@H](NC(=O)[C@@H]1CC[C@@H]2CC[C@@](N)(Cc3ccccc3)C(=O)N21)C(=O)c1nc2ccccc2s1` [Structure (29b)], which Ki [2] is on record?
**A.** Its Ki is 0.088 nM.

**Q.** And the Ki (tryptase)?
**A.** The Ki was 9 nM.
